Measured values taken from patent US20230295134A1, “USE OF PHENYLQUINOLINONE DERIVATIVE OR FLAVONOID DERIVATIVE FOR TREATING NEUROPATHIC PAIN” (HANGZHOU BIO-SINCERITY PHARMA-TECH CO., LTD., priority 2019, published 2023).

Key:
CCI model rats [1] = experiment: Mechanical withdrawal threshold in CCI model, 5 days repeated administration; assay type: in vivo, SD rats
Excerpt: Male SD rats, weighting 200-250 g, were used to establish CCI model. The common sciatic nerve was exposed at the level of the middle of the thigh, and 4 ligatures (4.0 chromic gut, 0.15 mm) were tied loosely with about 1-2 mm spacing to the position proximal to the sciatic's trifurcation, then the wound was closed. The rats in sham group were subjected to the same operative procedure as the CCI model but without nerve ligation. On the seventh day after operation, mechanical withdrawal threshold was measured in CCI model rats with Electric Von Frey (IITC-2391) for 2 days to choose rats with stable mechanical withdrawal threshold, which were divided into 5 groups: 1) model; 2) 50 mg/kg Gabapentin; 3) 3 mg/kg Compound I-10; 4) 1 mg/kg Compound I-10; and 5) 0.3 mg/kg Compound I-10. Group 2-5 were given corresponding medicines orally with the dose of 1 ml/100 g for 5 days, while the Group model and normal were given saline of the same volume with the same method. Mechanical withdrawal threshold was measured before and 2 h after intragastric administration, and the results were shown in FIG. 6.

PSL model rats = experiment: Heat pain threshold in partial sciatic nerve ligation (PSL) model; assay type: in vivo, SD rats; conditions: for heat pain threshold vs Pregabalin group: comparator 30 mg/kg Pregabalin
Protocol: Male SD rats, weighting 200-250 g, were used to establish partial sciatic nerve ligation (PSL) model. The rats were subjected to ligation of the right sciatic nerve at high-tight level, so that ⅓-½ thickness of the sciatic nerve was trapped in the ligature, and then the wound was closed. The rats in sham group were subjected to the same operative procedure as the PSL model but without nerve ligation. On the sixth day after operation, heat pain threshold was measured in PSL model rats with Plantar Test Apparatus (BME-410) for 2 days to choose rats with stable heat pain threshold, which were randomly divided into 5 groups: 1) model; 2) 30 mg/kg Pregabalin; 3) 3 mg/kg Compound I-6; 4) 1 mg/kg Compound I-6; and 5) 0.3 mg/kg Compound I-6. Group 2-5 were given corresponding medicines orally with the dose of 1 ml/100 g, while the Group model and normal were given saline of the same volume with the same method. Heat pain threshold was measured before administration and 1, 2, 4, 6 h after intragastric administration, and the results were shown in FIG. 1.
Male SD rats, weighting 200-250g, were used to establish partial sciatic nerve ligation (PSL) model. The rats were subjected to ligation of the right sciatic nerve at high-tight level, so that ⅓-½ thickness of the sciatic nerve was trapped in the ligature, and then the wound was closed. The rats in sham group were subjected to the same operative procedure as the PSL model but without nerve ligation. On the sixth day after operation, heat pain threshold was measured in PSL model rats with Plantar Test Apparatus (BME-410) for 2 days to choose rats with stable heat pain threshold, which were randomly divided into 7 groups: 1) model; 2) 50 mg/kg Gabapentin; 3) 100 mg/kg Carbamazepine; 4) 10 mg/kg Amitriptyline; 5) 1 mg/kg Compound I-4; 6) 1 mg/kg Compound I-6; and 7) 1 mg/kg Compound II-4. Group 2 -7 were given corresponding medicines orally with the dose of 1 ml/100 g, while the Group model and normal were given saline of the same volume with the same method. Heat pain threshold was measured before and 1, 2, 4, 6h after intragastric administration, and the results were shown in FIG. 2.

CCI model rats [2] = experiment: Mechanical withdrawal threshold in chronic constrictive injury (CCI) model, single dose; assay type: in vivo, SD rats
Excerpt: Male SD rats, weighting 200-250 g, were used to establish chronic constrictive injury (CCI) model. The common sciatic nerve was exposed at the level of the middle of the thigh, and 4 ligatures (4.0 chromic gut, 0.15 mm) were tied loosely with about 1-2 mm spacing to the position proximal to the sciatic's trifurcation. The rats in sham group were subjected to the same operative procedure as the CCI model but without nerve ligation. On the seventh day after operation, mechanical withdrawal threshold was measured in CCI model rats with Electric Von Frey (IITC-2391) for 2 days to choose rats with stable mechanical withdrawal threshold, which were divided into 5 groups: 1) model; 2) 50 mg/kg Gabapentin; 3) 9 mg/kg Compound I-4; 4) 3 mg/kg Compound I-4; and 5) 1 mg/kg Compound I-4. Group 2 -5 were given corresponding medicines orally with the dose of 1 ml/100 g, while the Group model and normal were given saline of the same volume with the same method. Mechanical withdrawal threshold was measured before administration and 1, 2, 4, 6 h after intragastric administration, and the results were shown in FIG. 3.

[3] = test system: diabetic neuropathic pain model; experiment: Heat pain threshold in STZ-induced diabetic neuropathic pain model; assay type: in vivo, SD rats; conditions: STZ rats; for heat pain threshold of diabetic neuropathic pain model: single dose PO, I-6 1 mg/kg, Gabapentin 50 mg/kg
Protocol: Male SD rats (200-250 g) with normal blood sugar were fasted but had free access to water for 12 hours. The diabetes model was induced by intraperitoneal injection of 60 mg/kg streptozotocin (STZ), and was examined by 2-hour postprandial sugar level on day 7 after injection, which should be higher than 16 mmol/L. The rats in normal group were given an equal volume of citric acid-sodium citrate buffer (pH 4.2). On day 14 after injection, the heat pain threshold of rats in diabetes model or normal group were measured with Plantar Test Apparatus (BME-410) to examine the success of diabetic neuropathic pain model. The rats in diabetic neuropathic pain model were divided into 3 groups: 1) model; 2) 50 mg/kg Gabapentin; and 3) 1 mg/kg Compound I-6. Group 2 and 3 were given corresponding medicines orally with the dose of 1 ml/100 g, while the Group model and normal were given saline of the same volume with the same method. Heat pain threshold was measured before administration and 1, 2, 4, 6 h after administration, and the results were shown in FIG. 4.

[4] = test system: OXA neuropathic pain model rats; experiment: Mechanical withdrawal threshold in Oxaliplatin chemotherapy-induced neuropathic pain model; assay type: in vivo, SD rats; conditions: for mechanical withdrawal threshold vs Pregabalin: 2nd-4th hour after administration
Protocol: Male SD rats (200-250 g) were injected 4 mg/kg of Oxaliplatin by intraperitoneal on day 1, 2, 8, 9, 15, 16, 22 and 23 to establish chemotherapy-induced neuropathic pain model. On day 24, the mechanical withdrawal threshold of rats in group normal and model were measured with Electric Von Frey (IITC-2391) to choose rats with stable mechanical withdrawal threshold, which were randomly divided into 5 groups: 1) model; 2) 30 mg/kg Pregabalin; 3) 9 mg/kg Compound II-4; 4) 3 mg/kg Compound II-4; and 5) 1 mg/kg Compound II-4. Group 2 -5 were given corresponding medicines orally with the dose of 1 ml/100g, while the Group model and normal were given saline of the same volume with the same method. Mechanical withdrawal threshold was measured before administration and 1, 2, 4, 6h after single administration, and the results were shown in FIG. 5.

[5] = In vivo pharmacokinetic studies (bioavailability); conditions: SD rats
Protocol: The in vivo pharmacokinetic studies of Compound I-6 were conducted in SD rats (n=3).

[6] = Security: intragastric administration of different dosages in mice; assay type: in vivo; conditions: mouse, in vivo, po; ICR mice; intragastric administration; read-out: half lethal dose (LD50)
ICR mice = experiment: as above; assay type: in vivo
[7] = 1 mg/kg PO single dose, since 1 hour after administration
[8] = 1 mg/kg PO, comparator 50 mg/kg Gabapentin

## COc1c(-c2ccc(OCCCN3CCCCC3)cc2)n(C)c2ccccc2c1=O [Compound I-10, 3-Methoxy-1-Methyl-2-(4-(3-(Piperidin-1-Yl)Propoxy)Phenyl)Quinolin-4(1H)-One]
CCI model rats [1]; 1 mg/kg PO for 5 days, 1st-5th day after administration
  mechanical withdrawal threshold vs model group: significantly higher (P<0.01) than model group
CCI model rats [1]; 5 days PO, compared with 50 mg/kg Gabapentin
  dose-dependency and stability of efficacy: better dose-dependency and stability of efficacy compared to Gabapentin
CCI model rats [1]; repeated administration 5 days, 0.3, 1 or 3 mg/kg PO
  mechanical withdrawal threshold, relation to dose: increased in a dose-dependent manner

## Cn1c(-c2ccc(OCCCN3CCCCC3)cc2)cc(=O)c2ccccc21 [Compound I-4, 1-Methyl-2-(4-(3-(Piperidin-1-Yl)Propoxy)Phenyl)Quinolin-4(1H)-One]
PSL model rats; [7]
  heat pain threshold vs model group: significantly higher than model group
CCI model rats [2]; 3 mg/kg PO, 1st-4th hour after administration
  mechanical withdrawal threshold vs model group: significantly higher (P<0.01) than model group
CCI model rats [2]; single dose 1, 3 or 9 mg/kg PO
  mechanical withdrawal threshold, relation to dose: dose-dependent increase
CCI model rats [2]; single dose PO, compared with 50 mg/kg Gabapentin
  effective time: longer than Gabapentin

## NCC1(CC(=O)O)CCCCC1 [Gabapentin, reference compound]
CCI model rats [2]; 50 mg/kg PO single dose
  mechanical withdrawal threshold vs model group: only remained significantly higher than model group during 1st-2nd hour
[3]
  heat pain threshold of diabetic neuropathic pain model: could improve the heat pain threshold
CCI model rats [1]; 50 mg/kg PO for 5 days
  mechanical withdrawal threshold vs model group: only kept the significant difference during 2nd-5th day

## CC(C)C[C@H](CN)CC(=O)O [Pregabalin, reference compound]
[4]; 30 mg/kg PO
  onset of action on mechanical withdrawal threshold: rapid action

## COc1c(-c2ccc(OCCCN3CCCCC3)cc2)oc2ccccc2c1=O [Compound II-4, 3-Methoxy-2-(4-(3-(Piperidin-1-Yl)Propoxy)Phenyl)-4H-Chromen-4-One]
PSL model rats; [7]
  heat pain threshold vs model group: significantly higher than model group
[4]; 1 mg/kg PO, 1st-2nd hour after administration
  mechanical withdrawal threshold vs model group: significantly higher (P<0.01) than model group
[4]; 3 mg/kg PO
  mechanical withdrawal threshold vs Pregabalin: significantly higher (P<0.05) than 30 mg/kg Pregabalin
[4]; 9 mg/kg PO
  mechanical withdrawal threshold vs Pregabalin: significantly higher (P<0.05) than 30 mg/kg Pregabalin
[4]; single dose 1, 3 or 9 mg/kg PO
  mechanical withdrawal threshold, relation to dose: dosage-dependent increase
[4]; single dose PO
  improvement of mechanical withdrawal threshold compared with Pregabalin: more effectively and longer

## CCn1c(-c2ccc(OCCCN3CCCCC3)cc2)cc(=O)c2ccccc21 [Compound I-6, 1-Ethyl-2-(4-(3-(Piperidin-1-Yl)Propoxy)Phenyl)Quinolin-4(1H)-One]
PSL model rats; 0.3 mg/kg PO, 2nd hour after administration
  heat pain threshold vs model group: significantly higher (P<0.01) than model group
PSL model rats; [7]
  heat pain threshold vs model group: significantly higher than model group
PSL model rats; 1.0 mg/kg PO
  heat pain threshold vs Pregabalin group: raised to be compared to 30 mg/kg Pregabalin group
PSL model rats; 3.0 mg/kg PO, 1st-2nd hour after administration
  heat pain threshold vs sham group: further improved to the level equal to sham group
PSL model rats; 3.0 mg/kg PO, 1st-2nd hour
  heat pain threshold vs Pregabalin group: better than Pregabalin group
PSL model rats; single dose 0.3, 1 or 3 mg/kg PO
  heat pain threshold, relation to dose: increased in a dose-dependent manner
[3]; [8]
  effective time vs Gabapentin: longer effective time
  heat pain threshold vs Gabapentin: significantly higher heat pain threshold (P<0.01)
[3]
  heat pain threshold of diabetic neuropathic pain model: could improve the heat pain threshold
[5]; P.O 10.0 mg/kg
  time at which peak plasma concentrations occur: 2.00 ± 1.73 h
[5]; Sprague-Dawley (SD), rat, plasma, iv, 1 mg/kg, I.V 1.00mg/kg
  half-life: 6 ± 1.43 h
[5]; Sprague-Dawley (SD), rat, plasma, po, 10 mg/kg, read-out: absolute bioavailability
  bioavailability: 51.3%
[5]; Sprague-Dawley (SD), rat, plasma, po, P.O 10.0 mg/kg
  half-life: 3.79 ± 0.12 h
[6]
  LD50: > 1020 mg/kg
ICR mice; 64 mg/kg
  signs after intragastric administration: no abnormal signs
ICR mice; 256 mg/kg
  signs after intragastric administration: one of the mice given a dose of 256 mg/kg suffered convulsions but recovered on the second day
ICR mice; 1024 mg/kg
  signs after intragastric administration: one of the mice given a dose of 1024 mg/kg suffered convulsions and finally died on the second day
